Among the data in article PMC8399847, “Hybrid Quinolinyl Phosphonates as Heterocyclic Carboxylate Isosteres: Synthesis and Biological Evaluation against Topoisomerase 1B (TOP1B)” (Pharmaceuticals, 2021) are IC50 values, retold here.

Molecules are shown by their SMILES.

What all share (type): cell-based
The test system of data set [1] is SKOV3 (human ovarian carcinoma). Put plainly: CCK-8 cytotoxicity assay, SKOV3. To be noted: SK-OV-3, SKOV3, 48 h, CCK-8, 50% growth inhibition, read-out: Cytotoxicity IC50 Ovarian SKOV3. On the procedure: (§1) The cytotoxicity of the newly synthesized quinolinylphosphonates 7 was evaluated in vitro by testing their antiproliferative activities against several human cancer cell lines: A549 (human lung adenocarcinoma cells), SKOV3 (human ovarian carcinoma), and HEK293 (human embryonic kidney). In order to analyze the selective cytotoxicity facing exclusively cancerous cell lines, cytotoxicity against non-cancerous cell lines (MRC-5, lung fibroblast cells) was also evaluated. Cell counting kit (CCK-8) assay was employed to assess growth inhibition and, cell proliferation inhibitory activities of compounds that are listed in Table 1 as IC50 values. […] According to the data presented in Table 1, in general, all these phosphorated derivatives present higher selective cytotoxicity in the A549 cell line than in the other two cell lines, SKOV3 and HEK293, although slight differences are observed compared to human ovarian carcinoma (SKOV3).
(§2) Cells were cultured according to the supplier’s instructions, A549 (ATCC® CCL-185), SKOV3 (ATCC® HTB-77), HEK293 (CLS GmbH), MRC-5 (ATCC® CCL-171™). Cells were seeded in 96-well plates at a density of 2–2.5 × 10^3 cells per well and incubated overnight in 0.1 mL of media supplied with 10% Fetal Bovine Serum (Lonza, Basel, Switzerland) in a 5% CO2 incubator at 37 °C. On day 2, drugs (concentration between 0.5–50 μM) were added and samples were incubated for 48 h. After treatment, 10 μL of cell counting kit-8 was added to each well for an additional 2 h incubation at 37 °C. The absorbance of each well was determined by an Automatic Elisa Reader System at 450 nm wavelength. CPT was purchased from Sigma-Aldrich and used as a positive control.

Data set [2] in a line: CCK-8 cytotoxicity assay, MRC-5 non-cancerous cells. As to conditions: human, MRC-5 non-malignant lung fibroblast cells, MRC-5 non-malignant lung fibroblasts. On the procedure: as §1, §2
Data set [3] concerns A549 (human lung adenocarcinoma cells). As to the kind of experiment: CCK-8 cytotoxicity assay, A549. To be noted: A549, 48 h, CCK-8, 50% growth inhibition, read-out: Cytotoxicity IC50 Lung A549. On the procedure:
as §1, §2

In the case of `CC[C@@]1(O)C(=O)OCc2c1cc1n(c2=O)Cc2cc3ccccc3nc2-1` [CPT, Camptothecin, reference compound], the 50% inhibitory concentration (IC50) was 5.5 nM in data set [1] and 1 nM in data set [3]. The IC50 at 48 h in data set [2] was determined as 0.017 nM.
